In patent US8802866B2, “Pyridinylimidazolone derivatives for the inhibition of PI3 kinases” (Merck Patent GmbH, priority 2009, dated 2014):

Columns and labels:
[1] = target: recombinant PI3Kalpha (shortened form of the catalytic subunit) (Homo sapiens, UniProt P42336); test: BIACORE PI3K binding assay (SPR); settings: 25° C.
Procedure, shortened: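 Contact time was 180 s and dissociation 240 s, in HEPES pH 7.40 buffer with 2% DMSO. Solvent-corrected, double-referenced data were fitted to a 1:1 model with mass transport.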

[2] = target: PI3Kalpha (Homo sapiens, UniProt P42336); test: Biochemical PI3Kalpha assay (neomycin SPA, lipid phosphorylation); settings: human recombinant GST-PI3K
Procedure, shortened: (§1)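 Recombinant PI3K incubated with lipid substrate and radioactive ATP for 120 min at room temperature with gentle stirring, then stopped with neomycin-coated PVT-SPA beads, ATP 60 mM and EDTA 6.2 mM in PBS. After 60 min bead binding and centrifugation, radioactive Ptdlns(3)P counted by scintillation.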

[3] = target: PI3Kbeta (Homo sapiens, UniProt P42338); test: Biochemical PI3Kbeta assay (neomycin SPA, lipid phosphorylation); settings: human recombinant GST-PI3K
Procedure, shortened: as §1

[4] = target: DNA-PK protein complex (Homo sapiens, UniProt P78527); test: Biochemical DNA-PK assay (FlashPlate)
Procedure, shortened: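 Streptavidin-coated FlashPlate radiometric kinase assay, stopped with 200 mM EDTA, then wells washed with 0.9% NaCl and bound radioactivity counted. Blank (non-specific reaction) defined with a proprietary kinase inhibitor at 10 μM.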

[5] = tested on: PI3K-dependent phosphorylation of PKB at Serin 473 in PC3 cells; test: Cellular PI3K assay (P-S473-PKB Luminex assay in PC3 cells); assay type: cell-based; settings: Homo sapiens, PC-3, 0.5 h; PC3 cells, 30 min, serum-free, P-S473-PKB; read-out: IC50 (cell)
Procedure, shortened: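 PC3 cells were exposed for 30 min under serum-free conditions to 7 concentrations of compound, then lysed. Lysates were captured overnight at 4°C on anti-total-PKB Luminex beads and detected with P-S473-PKB antibody plus PE-labelled secondary.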

PI3Kalpha, sequence (P42336 whole entry): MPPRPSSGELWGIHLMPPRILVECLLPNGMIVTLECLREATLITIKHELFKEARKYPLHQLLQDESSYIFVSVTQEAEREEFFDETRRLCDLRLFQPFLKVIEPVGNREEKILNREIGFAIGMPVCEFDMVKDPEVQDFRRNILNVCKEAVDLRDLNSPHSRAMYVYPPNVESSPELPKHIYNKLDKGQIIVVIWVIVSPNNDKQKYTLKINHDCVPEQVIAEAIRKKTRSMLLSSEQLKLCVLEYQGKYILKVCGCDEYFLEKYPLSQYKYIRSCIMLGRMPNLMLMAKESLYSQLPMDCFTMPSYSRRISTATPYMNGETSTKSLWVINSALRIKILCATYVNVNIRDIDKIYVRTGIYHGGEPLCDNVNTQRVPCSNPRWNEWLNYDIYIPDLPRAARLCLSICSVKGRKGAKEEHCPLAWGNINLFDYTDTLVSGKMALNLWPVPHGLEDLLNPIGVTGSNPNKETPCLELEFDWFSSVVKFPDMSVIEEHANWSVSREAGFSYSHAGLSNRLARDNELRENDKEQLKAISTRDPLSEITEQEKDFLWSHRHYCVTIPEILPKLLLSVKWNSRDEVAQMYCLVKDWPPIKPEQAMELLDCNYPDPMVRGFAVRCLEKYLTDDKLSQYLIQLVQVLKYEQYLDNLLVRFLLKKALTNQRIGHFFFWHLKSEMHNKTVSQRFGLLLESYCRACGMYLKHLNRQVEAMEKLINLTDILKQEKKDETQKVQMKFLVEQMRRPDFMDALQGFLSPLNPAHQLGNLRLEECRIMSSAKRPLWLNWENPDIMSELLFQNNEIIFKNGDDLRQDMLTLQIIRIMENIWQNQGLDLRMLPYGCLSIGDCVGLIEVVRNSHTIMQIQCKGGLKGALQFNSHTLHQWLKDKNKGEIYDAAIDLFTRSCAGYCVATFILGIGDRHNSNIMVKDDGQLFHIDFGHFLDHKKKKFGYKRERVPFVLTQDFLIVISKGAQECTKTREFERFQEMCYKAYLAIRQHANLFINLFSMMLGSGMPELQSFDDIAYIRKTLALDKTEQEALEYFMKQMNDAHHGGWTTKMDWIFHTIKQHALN
PI3Kalpha, sequence (P27986 whole entry partner): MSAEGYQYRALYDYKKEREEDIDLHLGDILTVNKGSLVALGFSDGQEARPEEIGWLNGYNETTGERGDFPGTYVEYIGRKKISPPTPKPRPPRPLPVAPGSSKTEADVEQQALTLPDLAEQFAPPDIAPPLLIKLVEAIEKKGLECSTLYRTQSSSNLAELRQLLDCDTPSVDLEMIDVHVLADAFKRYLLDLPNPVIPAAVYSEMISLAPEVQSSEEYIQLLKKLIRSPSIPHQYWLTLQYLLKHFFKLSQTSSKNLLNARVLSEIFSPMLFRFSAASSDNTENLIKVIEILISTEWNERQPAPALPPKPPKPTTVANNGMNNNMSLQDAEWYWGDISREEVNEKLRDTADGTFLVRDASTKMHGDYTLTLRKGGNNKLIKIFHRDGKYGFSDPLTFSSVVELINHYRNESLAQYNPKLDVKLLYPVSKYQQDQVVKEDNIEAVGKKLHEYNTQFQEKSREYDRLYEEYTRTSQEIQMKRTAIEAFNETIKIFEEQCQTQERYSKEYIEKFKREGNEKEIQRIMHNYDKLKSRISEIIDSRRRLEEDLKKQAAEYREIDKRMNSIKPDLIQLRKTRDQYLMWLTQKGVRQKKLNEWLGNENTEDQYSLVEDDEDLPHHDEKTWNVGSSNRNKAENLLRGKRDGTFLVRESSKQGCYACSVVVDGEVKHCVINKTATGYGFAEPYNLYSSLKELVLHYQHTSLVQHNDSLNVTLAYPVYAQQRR
PI3Kbeta, sequence (P42338 whole entry): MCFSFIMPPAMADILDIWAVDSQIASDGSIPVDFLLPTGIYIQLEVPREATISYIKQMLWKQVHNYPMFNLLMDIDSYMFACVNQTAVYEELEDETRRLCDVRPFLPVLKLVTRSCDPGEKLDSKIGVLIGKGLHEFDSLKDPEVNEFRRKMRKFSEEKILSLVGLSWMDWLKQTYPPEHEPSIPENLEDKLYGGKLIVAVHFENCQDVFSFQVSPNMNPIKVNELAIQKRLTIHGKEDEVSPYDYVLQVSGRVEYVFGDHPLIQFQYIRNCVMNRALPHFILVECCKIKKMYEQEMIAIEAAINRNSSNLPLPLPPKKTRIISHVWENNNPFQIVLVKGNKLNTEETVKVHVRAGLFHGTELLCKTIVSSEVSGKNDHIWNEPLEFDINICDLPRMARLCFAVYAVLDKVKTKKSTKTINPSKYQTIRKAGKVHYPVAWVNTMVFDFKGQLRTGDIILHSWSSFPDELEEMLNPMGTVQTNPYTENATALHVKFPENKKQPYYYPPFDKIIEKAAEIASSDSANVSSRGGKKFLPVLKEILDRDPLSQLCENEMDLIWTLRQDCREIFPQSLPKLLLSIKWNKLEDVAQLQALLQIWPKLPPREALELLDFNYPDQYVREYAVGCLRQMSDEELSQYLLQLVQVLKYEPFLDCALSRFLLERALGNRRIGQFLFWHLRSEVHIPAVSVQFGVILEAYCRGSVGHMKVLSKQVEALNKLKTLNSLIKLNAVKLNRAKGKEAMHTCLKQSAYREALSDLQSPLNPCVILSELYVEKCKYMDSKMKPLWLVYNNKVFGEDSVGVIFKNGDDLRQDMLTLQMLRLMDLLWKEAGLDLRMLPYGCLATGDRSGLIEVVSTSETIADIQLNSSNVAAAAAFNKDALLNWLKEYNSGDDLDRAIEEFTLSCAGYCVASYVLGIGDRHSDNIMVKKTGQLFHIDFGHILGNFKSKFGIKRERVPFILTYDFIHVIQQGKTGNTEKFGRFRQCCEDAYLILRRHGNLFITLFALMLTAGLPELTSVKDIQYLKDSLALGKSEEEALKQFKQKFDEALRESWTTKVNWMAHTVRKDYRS
PI3Kbeta, sequence (P27986 whole entry partner): as the sequence (P27986 whole entry partner) above
recombinant PI3Kalpha (shortened form of the catalytic subunit), sequence (P42336 151-1068 limits assumed): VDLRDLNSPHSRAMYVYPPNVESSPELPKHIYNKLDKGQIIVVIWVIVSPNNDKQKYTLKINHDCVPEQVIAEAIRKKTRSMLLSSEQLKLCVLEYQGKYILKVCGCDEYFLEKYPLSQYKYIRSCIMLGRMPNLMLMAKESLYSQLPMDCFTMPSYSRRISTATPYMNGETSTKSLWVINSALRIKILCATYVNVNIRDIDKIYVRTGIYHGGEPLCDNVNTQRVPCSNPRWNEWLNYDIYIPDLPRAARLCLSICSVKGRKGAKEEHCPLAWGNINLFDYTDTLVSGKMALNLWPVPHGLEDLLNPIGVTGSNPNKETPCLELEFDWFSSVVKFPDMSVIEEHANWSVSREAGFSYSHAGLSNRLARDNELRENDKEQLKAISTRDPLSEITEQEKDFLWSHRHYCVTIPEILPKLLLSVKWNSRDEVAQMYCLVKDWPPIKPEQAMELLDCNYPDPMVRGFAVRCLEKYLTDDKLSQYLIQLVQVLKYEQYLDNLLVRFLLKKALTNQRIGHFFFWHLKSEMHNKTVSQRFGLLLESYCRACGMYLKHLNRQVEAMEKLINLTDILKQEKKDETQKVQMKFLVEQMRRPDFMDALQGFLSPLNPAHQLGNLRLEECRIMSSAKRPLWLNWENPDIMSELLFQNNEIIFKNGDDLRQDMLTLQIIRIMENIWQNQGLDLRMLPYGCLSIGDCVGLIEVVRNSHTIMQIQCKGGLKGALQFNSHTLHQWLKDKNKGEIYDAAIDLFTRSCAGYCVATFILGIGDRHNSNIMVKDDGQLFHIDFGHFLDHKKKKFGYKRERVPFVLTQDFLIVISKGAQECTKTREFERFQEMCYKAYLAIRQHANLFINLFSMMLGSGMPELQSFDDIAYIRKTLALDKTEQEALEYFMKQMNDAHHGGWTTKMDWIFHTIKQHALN

| Kd [1] [µM] | IC50 [2] [µM] | IC50 [3] [µM] | melting point [°C] | IC50 [4] [µM] | IC50 [5] [µM] | Compound |
| --- | --- | --- | --- | --- | --- | --- |
| 0.1 to 10 | 0.1 to 10 | 0.1 to 10 | 277 | 0.1 to 10 | 0.1 to 10 | COc1ccc(-c2ccnc(-c3c[nH]c(=O)n3-c3ccc(C(C)(C)C#N)cc3)c2)cn1 [Example A15, 2-{4-[5-(6-Methoxy-[3,4′]bipyridinyl-2′-yl)-2-oxo-2,3-dihydroimidazol-1-yl]-10 phenyl}-2-methylpropionitrile] |
| 0.1 to 10 | 0.1 to 10 | 0.1 to 10 | 271 | 0.1 to 10 | 0.1 to 10 | CC(C)(C#N)c1ccc(-n2c(-c3cc(-c4cnc5ccccc5c4)ccn3)c[nH]c2=O)cc1 [Example A17, 2-Methyl-2-{4-[2-oxo-5-(4-quinolin-3-ylpyridin-2-yl)-2,3-dihydroimidazol-1-yl]-phenyl}propionitrile] |
| 0.1 to 10 | 0.1 to 10 | > 10 | 238 | 0.0001 to 0.1 | 0.1 to 10 | Cn1cc(-c2cc(-c3ccc4[nH]ccc4c3)ccn2)n(-c2ccc(C(C)(C)C#N)cc2)c1=O [Example A53, 2-(4-{5-[4-(1H-Indol-5-yl)pyridin-2-yl]-3-methyl-2-oxo-2,3-dihydroimidazol-1-yl}-phenyl)-2-methylpropionitrile] |
| 0.1 to 10 | 0.1 to 10 | 0.1 to 10 | 223 | 0.1 to 10 | 0.1 to 10 | COc1cc(-n2c(-c3cc(-c4cnc5[nH]ccc5c4)ccn3)cn(C)c2=O)ccc1Cl [Example A58, 3-(4-Chloro-3-methoxyphenyl)-1-methyl-4-[4-(1H-pyrrolo[2,3-b]pyridin-5-yl)-pyridin-2-yl]-1,3-dihydroimidazol-2-one] |

Continued, molecule first:

| Compound | Kd [1] [µM] | IC50 [2] [µM] | IC50 [3] [µM] | melting point [°C] | IC50 [4] [µM] | IC50 [5] [µM] |
| --- | --- | --- | --- | --- | --- | --- |
| CC(C)(CN)c1ccc(-n2c(-c3cc(-c4cnc5ccccc5c4)ccn3)c[nH]c2=O)cc1 [Example A16, 1-[4-(2-Amino-1,1-dimethylethyl)phenyl]-5-(4-quinolin-3-ylpyridin-2-yl)-1,3-dihydroimidazol-2-one] | 0.1 to 10 | 0.1 to 10 | 0.1 to 10 | 244 to 247 | 0.1 to 10 | > 10 |
| Cn1cc(-c2cc(-c3cnc4[nH]cc(C(F)(F)F)c4c3)ccn2)n(-c2ccc(C(C)(C)C#N)cc2)c1=O [Example A18, 2-Methyl-2-(4-{3-methyl-2-oxo-5-[4-(3-trifluoromethyl-1H-pyrrolo[2,3-b]pyridin-5-yl)pyridin-2-yl]-2,3-dihydroimidazol-1-yl}phenyl)propionitrile] | 0.0001 to 0.1 | 0.1 to 10 | 0.1 to 10 | 159 | 0.1 to 10 | 0.0001 to 0.1 |
| Cn1cc(-c2cc(-c3cnc4[nH]ccc4c3)ccn2)n(-c2ccc(N3CCNCC3)c(C(F)(F)F)c2)c1=O [Example A25, 1-Methyl-3-(4-piperazin-1-yl-3-trifluoromethylphenyl)-4-[4-(1H-pyrrolo[2,3-b]-pyridin-5-yl)pyridin-2-yl]-1,3-dihydroimidazol-2-one] | 0.0001 to 0.1 | 0.1 to 10 | 0.0001 to 0.1 | 163 | 0.1 to 10 | 0.1 to 10 |
| Cn1cc(-c2cc(-c3cnc(N)c(C(F)(F)F)c3)ccn2)n(-c2ccc(C(C)(C)C#N)cc2)c1=O [Example A40, 2-{4-[5-(6-Amino-5-trifluoromethyl-[3,4′]bipyridinyl-2′-yl)-3-methyl-2-oxo-2,3-dihydroimidazol-1-yl]phenyl}-2-methylpropionitrile] | 0.0001 to 0.1 | 0.0001 to 0.1 | 0.0001 to 0.1 | 195 | 0.0001 to 0.1 | 0.0001 to 0.1 |
| CNc1ccc(-c2ccnc(-c3cn(C)c(=O)n3-c3ccc(C(C)(C)C#N)cc3)c2)cn1 [Example A42, 2-Methyl-2-{4-[3-methyl-5-(6-methylamino-[3,4′]bipyridinyl-2′-yl)-2-oxo-2,3-dihydroimidazol-1-yl]phenyl}propionitrile] | 0.0001 to 0.1 | 0.1 to 10 | 0.1 to 10 | 191 | 0.0001 to 0.1 | 0.1 to 10 |
